# Data as given in US11203576B2, “Aurora kinase and Janus kinase inhibitors for prevention of graft versus host disease” (H. LEE MOFFITT CANCER CENTER AND RESEARCH INSTITUTE, INC., priority 2016, dated 2021).
# What was measured:
# [1] = system: H3 Ser10 (target of Aurora); assay: H3 Ser10 phosphorylation in DC-allostimulated T-cells (flow cytometry); assay type: cell-based, human; conditions: 5-day allogeneic DC stimulation; AJI 750 nM, alisertib 1.75 μM, TG101348 350 nM
# Protocol: After 5 days, T cells were then harvested and directly fixed (Cytofix, BD Biosciences) for 10 min at 37° C. After washing with phosphate-buffered saline, the T cells were permeabilized with icecold methanol (90%, v/v) for at least 20 min at -20° C. The cells were stained for expression of CD3 and pH[…].
# [2] = system: xenogeneic GVHD (NSG mice transplanted with human PBMCs); assay: Xenogeneic GVHD model; assay type: in vivo
# From the text: After transplantation and treatment with either AJI-100 or vehicle control, human T cells were isolated from recipient mouse spleens at day +14, stained for pH3Ser^10 or pSTAT3 (+IL-6 stimulation), and analyzed as described.
# NOD scid gamma (NSG) mice (male or female, 6-24 weeks old) were purchased from Jackson Laboratory (Bar Harbor, Me., USA) and raised per an IACUC-approved protocol in adherence to the NIH Guide for the Care and Use of Laboratory Animals. Mice received either (i) alisertib (30 mg/kg daily), TG101348 (45 mg/kg twice a day), a combination of alisertib and TG101348, or vehicle (methylcellulose) by oral gavage or (ii) AJI-100 (50 mg/kg daily) or vehicle (50% polyethylene glycol, 15% 2-hydroxypropyl-b-cyclodextrin, and 10% DMSO in sterile saline) ip from day 0 to day +14.
# Mice were monitored for GVHD clinical scores (K. R. Cooke et al., An experimental model of idiopathic pneumonia syndrome after bone marrow transplantation: I. The roles of minor H antigens and endotoxin. Blood 88, 3230 (1996)), weight, and premoribund status. As indicated, mice were euthanized on day +14 to study recipient spleen Tconv, Tregs, TH1, TH17, B cells, and T-cell signal transduction. Human CD4^+ Treg (CD25+, CD127^−, Foxp3^+), Tconv(CD25^+, CD127^+), TH1, TH17, and CD19^+ B cells residing in recipient spleens were quantified by flow cytometry. T-cell pH3 ser10 and PSTAT3 were evaluated by flow cytometry. IL-17 ELISPOTs were performed using isolated human T cells from recipient mouse spleen as described above. Tissue samples were prepared, stained (Ventana Medical Systems, Tucson, Ariz.), and imaged (Vista, Calif., USA) to identify human T-cells as previously described. All vertebrate animal work was IACUC-approved.
# [3] = Solubility; assay type: physicochemical; conditions: relative to the ortho-chloro analogue
# [4] = day +14, 50 mg/kg daily, vs vehicle
smiles,measurement,setting,value
"NC(=O)c1ccc(Nc2ncc(F)c(Nc3ccccc3)n2)cc1 [bisanilinopyrimidine (II), 5-Fluoro-N4-phenyl-N2-[4-(4-carboxamide)phenyl]pyrimidine-2,4-diamine]",phosphorylation of histone 3 serine 10 (pH3 Ser10) in T-cells,[1],reducing the phosphorylation
same,overall survival,"[2]; 50 mg/kg daily i.p. day 0 to +14, 56 days of observation",71.4%
same,overall survival of the mice,"[2]; AJI-100 50 mg/kg daily ip day 0 to +14, vs vehicle",significantly improved
same,H3 ser10 phosphorylation in human T-cells harvested from mice,[2]; [4],less H3 ser10 phosphorylation
same,pSTAT3+ human T cells harvested from recipient spleens,[2]; [4],significantly reduced
same,H3 ser10 phosphorylation in human T-cells harvested from mice,"[2]; day +14, 50 mg/kg daily, vs vehicle, listed as AJI-100",significantly reduced
same,GVHD severity (pathology) in liver and lung,"[2]; day +14, vs vehicle",significantly reduced
same,Treg frequency in the liver,"[2]; day +14, vs vehicle",similar
same,absolute number of Tregs in recipient spleens,"[2]; day +14, vs vehicle",significantly reduced
same,absolute number of activated CD4+ Tconv in recipient spleens,"[2]; day +14, vs vehicle",significantly reduced
same,absolute number of total CD4+ T cells in recipient spleens,"[2]; day +14, vs vehicle",significantly reduced
same,absolute number of total spleen cells and human CD3+ T-cells in spleens,"[2]; day +14, vs vehicle",similar
same,percentage of CD4+ alloreactive Tconv in the spleen,"[2]; day +14, vs vehicle",similar
same,ratio of human Treg to CD4+ alloreactive/activated Tconv in recipient spleens,"[2]; day +14, vs vehicle",significantly increased
same,relative amount of human Tregs in the spleen,"[2]; day +14, vs vehicle",significantly increased
same,spleen-resident human TH1 T cells,"[2]; day +14, vs vehicle",significantly reduced
same,spleen-resident human TH17 T cells,"[2]; day +14, vs vehicle",significantly reduced
same,tissue-infiltrating human T cells in recipient liver (and lung),"[2]; day +14, vs vehicle",dramatically reduced
same,tissue-infiltrating human T cells in recipient liver (and lung),"[2]; day +14, vs vehicle, listed as AJI-100",significantly decreased
same,surviving mice with limited fur/skin changes without significant weight loss,[2]; day +56,60%
same,onset and severity of GVHD,"[2]; dosing day 0 to +14, vs vehicle",reduced the severity of GVHD
same,tolerability in mouse models,"[2]; mouse, in vivo",tolerated
same,average GVHD clinical scores,[2]; surviving treated mice at day +56,< 2
same,CD8+ T cell and CD19+ B cell reconstitution (absolute numbers),[2]; vs vehicle,suppressive effect
same,frequencies of CD4+ and CD8+ T cells and CD19+ B cells,[2]; vs vehicle,similar
same,solubility,[3],enhancing its solubility
